According to PMC8414802, “Hair Cell Generation in Cochlear Culture Models Mediated by Novel γ-Secretase Inhibitors” (Frontiers in Cell and Developmental Biology, 2021):

Test system: Myo7a+ hair cells and Sox2+ cells in sisomicin-damaged rat cochlear organoids
Assay: Rat cochlear organoids after sisomicin damage
Assay type: cell-based
Protocol: On day 0, the cochlear sensory epithelium was dissected and the OC was separated from the modiolus and stria vascularis, as described above, from either Wistar rat pups (P2), Lgr5-GFP mice (P0–P2) or Atoh1-GFP mice (P0–P2). To separate the sensory epithelial layer from underlying mesenchyme and neurons, the OC was placed in a 100 μl drop of Matrisperse Cell Recovery Solution (Corning) for 1 h at RT, then delaminated with the aid of forceps. Gentle enzymatic dissociation of hair cells and supporting cells followed with 100 μl drop of TrypLE (Gibco), 20 min at 37°C, then mechanical trituration in DMEM/F12. The cell suspension was centrifuged for 5 min at 500 g at 4°C and resuspended in DMEM/F12 medium supplemented with B27 and N2 (Invitrogen), EGF (50 ng/ml), bFGF (50 ng/ml), IGF (25 ng/ml), CHIR99021 (GSK-3β inhibitor, 3 μM, Merck), valproic acid (HDAC inhibitor, 1 mM, Sigma), 2-phospho-L-ascorbic acid (280 μM, Stemcell Technologies) and 0.01% ampicillin (Sigma). Cells were plated at 2,000 cells per well on 96 wells plate (Corning Costar; ultra-low attachment, round-bottom) to allow aggregation at 37°C. On day 1, Matrigel (GF-depleted, Corning; 2% stock) was added to a final concentration of 0.18 mg/ml. […]
For staining and imaging, organoids were allowed to adhere ON onto transwell-permeable support membranes (Corning) in 12-well plates coated with 100% Matrigel. […] Compiled Z-projections were processed (FIJI, ver2.0) and hair cells quantified on individual planes with manual cell counter plugin, by evaluation of cytosolic expression and nuclear exclusion of Myo7a. […]
Finally, the regenerative potential of CPD3 was assessed with rat cochlear organoids testing the efficacy of CPD3 to transdifferentiate any remaining supporting cells after ototoxic damage. […] A decrease in Myo7a+ hair cells was detected 7 days following sisomicin damage (Figure 6D). […]

With `COc1ccc2c(c1)N1CCC(C)(C)C1=CC(=O)[C@H]2NC(=O)[C@H](C)NC(=O)CCC(F)(F)F` [CPD3] the “Total number of Sox2 positive cells in the organoid” value (after sisomicin damage) was “did not change”, the “Number of Myo7a+/Sox2+ hair cells” value (after sisomicin damage, p < 0.001) was “did increase” and the “Myo7a+ hair cells after sisomicin damage” value (sisomicin 500 μM 2 h at day 20, 7 days culture, vs sisomicin only, p < 0.001) was “significant increase”.
